The text below walks through data of US20060063913A1, “SSX-2 peptide analogs” (priority 2004, published 2006).

One test addresses HLA-A*0201 (Homo sapiens, UniProt P04439, D140Y/D185E/D98H/E176V/E277Q/G131W/G231S/I119V/I121R/I166T/I218V/L300P/L318F/N151K/N90K/P208A/P217A/Q86G/Q94H/R138H/R169H/T345S). The test can be described thus: ED50 (M).
The subject of test [1] is T cell lines specific for the native epitope (PRAME425-433). As to the kind of experiment: Cross-reactivity of PRAME 425-433 analogs: IFN-gamma secretion from T cell lines specific for the native epitope. It is filed as cell-based, HHD transgenic mice. Particulars: analog peptide at approximately 0.3 μM. The protocol:
The analogs listed in FIGS. 26-28 were tested for various properties such as improved affinity and stability of binding, cross-reactivity with the native epitope, and immunogenicity as follows in Examples 40-48. […] The observed affinities of the analogs are reported as % binding (compared to the positive control) and ED50s. Stability of binding as half time of dissociation. Cross reactivity with the native epitope was assessed by using the analog peptides to stimulate IFG-gamma secretion from a T cell lines specific for the native epitope, essentially as described in Example 6. The data shown in FIGS. 26-28 were generated by stimulating with analog peptide at approximately 0.3 μM. […] In some cases the reported values are the average of two determinations.

Test [2] deals with T cells specific for the wild-type NY-ESO-1157-165 epitope. The test can be described thus: Cross-reactivity and functional avidity of NY-ESO-1 157-165 analogs (IFN-gamma, T cells specific for the wild-type epitope). It is filed as cell-based, HHD transgenic mice. Particulars: IFN-gamma production ex vivo.
A further test has as its target T1, HLA-A*0201 on T2 cells (human).
T1 construct: Class I MHC stabilised on T2 cells by added peptide, detected with a fluorescent anti-A2 antibody; also called HLA-A2; MHC class I (A2 allele)
As to the kind of experiment: T2 cell binding assay (flow cytometry). On the technique in general: A flow cytometer gives signals particle by particle.

Where a SMILES comes first, the peptide text is derived from it. Where no end group is shown, it is not given here. [ ]: non-standard residue; d: D form. Orn = NCCC[C@H](N)C(=O)O; Nva = CCC[C@H](N)C(=O)O

A word on the EC50: it is the concentration at which the effect is half-maximal. A higher EC50 goes with a less potent agent.

Molecule `CCC[C@H](NC(=O)[C@@H](N)CO)C(=O)N[C@@H](CC(C)C)C(=O)N[C@@H](CCC(N)=O)C(=O)N[C@@H](Cc1c[nH]cn1)C(=O)N[C@@H](CC(C)C)C(=O)N[C@H](C(=O)NCC(=O)N[C@@H](CC(C)C)C(=O)O)[C@@H](C)CC` [6 | Prame 425-433 (L426(Nva)), S(Nva)LQHLIGL] (H-S[Nva]LQHLIGL-OH; N-terminus and C-terminus assumed) gave an EC50 on HLA-A*0201 of 1910 nM.
The same measure, in the same setting: as for `CC[C@H](C)[C@H](NC(=O)[C@H](CC(C)C)NC(=O)[C@H](Cc1c[nH]cn1)NC(=O)[C@H](CCC(N)=O)NC(=O)[C@H](CC(C)C)NC(=O)[C@H](CC(C)C)NC(=O)[C@@H](N)CCCN)C(=O)NCC(=O)N[C@@H](CC(C)C)C(=O)O` [12 | Prame 425-433 (S425(Orn))] (H-[Orn]LLQHLIGL-OH; N-terminus and C-terminus assumed), the figure is 2250 nM.
Turning to `CCC[C@H](NC(=O)CNC(=O)[C@@H](NC(=O)[C@H](CC(C)C)NC(=O)[C@H](Cc1c[nH]cn1)NC(=O)[C@H](CCC(N)=O)NC(=O)[C@H](CC(C)C)NC(=O)[C@H](CC(C)C)NC(=O)[C@@H](N)CO)[C@@H](C)CC)C(=O)O` [18 | Prame 425-433 (L433(Nva))] (H-SLLQHLIG[Nva]-OH; N-terminus and C-terminus assumed), on HLA-A*0201, the EC50 came out at 1660 nM.
Regarding FLLQHLIGL [9 | Prame 425-433 (S425F)], the EC50 on HLA-A*0201 was found to be 434 nM.
Turning to “Lys P1 analog: PRAME 425-433 analog with Lys for the Ser at the P1 position (KLLQHLIGL; UniProt P78395 425-433, looked up, variant S425K)”, the “IFN-γ elicited, as percent of the native peptide” value in test [1] is 40%.
With “NY-ESO-1157-166: 10-mer of the wild-type NY-ESO-1 sequence, residues 157-166 (SLLMWITQCF; UniProt P78358 157-166, looked up, fragment)”, the “Activity in the cross-reactivity/functional avidity assay relative to wild-type NY-ESO-1 157-165, in words” value in test [2] is on record as “showed no immunological activity”.
For the molecule SMLQHLIGL [3 | Prame 425-433 (L426M)], a half-maximal response at HLA-A*0201 (EC50) required 988 nM.
Take TLLQHLIGL [11 | Prame 425-433 (S425T)]: the EC50 at HLA-A*0201 worked out at 1450 nM.
With YLLQHLIGL [10 | Prame 425-433 (S425Y)], the concentration giving a half-maximal response (EC50) on HLA-A*0201 turned out to be 550 nM.

B1: SSX-2 41-49-NH2 (A42V) (peptide)
peptide: KVSEKIFYX
modifications: C-terminal amide
Turning to B1, the binding result with HLA-A*0201 on T2 cells is “no binding”.
